Structures can show the parent of a compound that is named as a salt. A value given as a limit tells only on which side of the number the result lay.

One experiment deals with Steroidogenic factor 1 (Homo sapiens, UniProt Q13285). The experiment in a line: SF-1 inhibitor potency, dose response, cell-based, CHO-K1, Gal4-SF-1 LBD, luciferase luminescence (AID 600).
Sequence of Steroidogenic factor 1 (Q13285 whole entry, the tested form may be a part): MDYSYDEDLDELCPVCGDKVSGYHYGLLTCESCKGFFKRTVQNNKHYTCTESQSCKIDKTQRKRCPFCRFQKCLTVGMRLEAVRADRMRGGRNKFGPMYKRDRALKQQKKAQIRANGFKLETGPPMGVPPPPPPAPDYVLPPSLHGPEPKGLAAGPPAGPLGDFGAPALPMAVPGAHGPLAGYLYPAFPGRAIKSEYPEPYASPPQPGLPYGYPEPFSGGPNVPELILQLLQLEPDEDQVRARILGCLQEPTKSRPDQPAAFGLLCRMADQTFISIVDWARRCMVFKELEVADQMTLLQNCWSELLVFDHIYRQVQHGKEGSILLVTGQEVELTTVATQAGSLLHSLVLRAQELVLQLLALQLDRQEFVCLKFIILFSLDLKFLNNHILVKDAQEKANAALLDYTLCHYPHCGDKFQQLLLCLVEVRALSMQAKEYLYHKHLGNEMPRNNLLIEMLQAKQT
Conditions: not given
The molecule `COC(=O)c1nn(-c2ccc(-c3ccccc3)cc2)cc1O` [4-hydroxy-1-(4-phenylphenyl)-3-pyrazolecarboxylic acid methyl ester] gave an IC50 greater than 33 µM.

For the molecule `Cc1ccc(-c2cnc(NC(=O)CCC(=O)N3CCCCC3)n2C)cc1` [4-keto-N-[1-methyl-5-(p-tolyl)imidazol-2-yl]-4-piperidino-butyramide], the IC50 was greater than 99 µM.

The molecule `COc1ccc(C(=O)Nn2c(SCC(=O)NCC3CCCO3)nc3ccccc3c2=O)cc1` (stereo not given) [4-methoxy-N-[4-oxidanylidene-2-[2-oxidanylidene-2-(oxolan-2-ylmethylamino)ethyl]sulfanyl-quinazolin-3-yl]benzamide] registered an IC50 of 4.29 µM.

In turn, `COc1ccc(C(=O)NC(=O)Nc2cc(C)ccn2)cc1` [4-methoxy-N-[(4-methyl-2-pyridyl)carbamoyl]benzamide] showed an IC50 greater than 1.22 µM.

On to `CCOc1ccc(OCc2cccc(C(=O)N3CCOCC3)c2)cc1` [4-{3-[(4-ethoxyphenoxy)methyl]benzoyl}morpholine], for which the IC50 was greater than 1.22 µM.

`Cc1c2ccncc2c(C)c2c1[nH]c1ccccc12` [5,11-dimethyl-2H-pyrido[4,3-b]carbazole] displayed an IC50 greater than 3.67 µM.

The molecule `O=C(NC1CC1)c1ccc(-c2nc3ccccc3s2)s1` [5-(1,3-benzothiazol-2-yl)-N-cyclopropyl-2-thiophenecarboxamide] displayed an IC50 of 2.81 µM.

In the case of `Cc1oc(-c2ccc3c(c2)OCCO3)cc1C(=O)O` [5-(2,3-dihydro-1,4-benzodioxin-6-yl)-2-methyl-3-furancarboxylic acid], the IC50 was 5.55 µM.

Turning to `COc1ccc(-c2nc(-c3ccccc3)no2)c(OC)c1` [5-(2,4-dimethoxyphenyl)-3-phenyl-1,2,4-oxadiazole], half-maximal inhibition (IC50) was put at 3.52 µM.

For `Cc1ccc(-c2nc(-c3ccccc3)no2)c(Cl)c1` [5-(2-chloranyl-4-methyl-phenyl)-3-phenyl-1,2,4-oxadiazole], the midpoint of inhibition, the IC50, lay at 4.71 µM.

Molecule `c1ccc(-c2noc(-c3ccc4ccccc4c3)n2)cc1` [5-(2-naphthalenyl)-3-phenyl-1,2,4-oxadiazole] yielded an IC50 of 8.89 µM.

In the case of `Clc1ccc(-c2nc(-c3ccccn3)no2)cc1Cl` [5-(3,4-dichlorophenyl)-3-(2-pyridinyl)-1,2,4-oxadiazole], the IC50 was determined as 5.62 µM.

In turn, `Cc1ccc(-c2nc(-c3ccccn3)no2)cc1Cl` [5-(3-chloranyl-4-methyl-phenyl)-3-pyridin-2-yl-1,2,4-oxadiazole] came in with an IC50 greater than 1.22 µM.

`Cn1cc(C=Nn2cnc3scc(-c4ccc(Cl)cc4)c3c2=O)c2ccccc21` [5-(4-chlorophenyl)-3-[(1-methyl-3-indolyl)methylideneamino]-4-thieno[2,3-d]pyrimidinone] came in with an IC50 of 9.07 µM.

`Fc1ccc(-c2nnc(NC3=NCCCCC3)o2)cc1` [5-(4-fluorophenyl)-N-(3,4,5,6-tetrahydro-2H-azepin-7-yl)-1,3,4-oxadiazol-2-amine] displayed an IC50 of 4.83 µM.

Regarding `Cc1ccc(-c2cc(C(=O)N3CCCC3)no2)cc1` [5-(4-methylphenyl)-3-(1-pyrrolidinylcarbonyl)isoxazole], the IC50 is greater than 3.67 µM.

As for `Cc1ccc(-c2nc(-c3ccccn3)no2)cc1` [5-(4-methylphenyl)-3-(2-pyridinyl)-1,2,4-oxadiazole], the IC50 stood at 1.25 µM.

Molecule `Cc1ccc(-c2nnc(Nc3ccccc3)o2)cc1` [5-(4-methylphenyl)-N-phenyl-1,3,4-oxadiazol-2-amine] showed an IC50 of 5.17 µM.

Take `Oc1c(CN2CCOCC2)cc(COCc2ccccc2)c2cccnc12` [5-(benzoxymethyl)-7-(morpholinomethyl)quinolin-8-ol]: the IC50 was determined as 6.06 µM.

In turn, `COCc1cc(CN2CCCC2)c(O)c2ncccc12` [5-(methoxymethyl)-7-(1-pyrrolidinylmethyl)-8-quinolinol] yielded an IC50 of 4.13 µM.

`Cc1cnc(C(=O)Nc2cccc3cccnc23)cn1` [5-Methyl-pyrazine-2-carboxylic acid quinolin-8-ylamide]: it took 8.91 µM to reach half-maximal inhibition (IC50).

`COc1cccc(CNC(=O)c2nnn(CC(=O)Nc3ccc(C)c(C)c3)c2N)c1` [5-amino-1-[2-(3,4-dimethylanilino)-2-keto-ethyl]-N-m-anisyl-triazole-4-carboxamide] registered an IC50 of 8.72 µM.

On to `Oc1c(CN2CCCCC2)cc(Br)c2cccnc12` [5-bromanyl-7-(piperidin-1-ylmethyl)quinolin-8-ol], for which the IC50 is greater than 3.67 µM.

For `O=S(=O)(NCc1ccncc1)c1ccc(Br)s1` [5-bromanyl-N-(pyridin-4-ylmethyl)thiophene-2-sulfonamide], the IC50 was 0.108 µM.

`Oc1c(CN2CCN(c3ccccn3)CC2)cc(Cl)c2cccnc12` [5-chloranyl-7-[(4-pyridin-2-ylpiperazin-1-yl)methyl]quinolin-8-ol] showed an IC50 of 7.6 µM.

With `O=C(Nc1nc(-c2ccccn2)cs1)c1ccc(Cl)s1` [5-chloranyl-N-(4-pyridin-2-yl-1,3-thiazol-2-yl)thiophene-2-carboxamide], the IC50 was greater than 3.67 µM.

The molecule `Cc1ccc(S(=O)(=O)Nc2cccc3ncccc23)s1` [5-methyl-N-quinolin-5-ylthiophene-2-sulfonamide] registered an IC50 of 5.75 µM.

Take `Cn1nc(C(C)(C)C)cc1C(=O)NCc1ccc(N2CCCC2=O)cc1` [5-tert-Butyl-2-methyl-2H-pyrazole-3-carboxylic acid 4-(2-oxo-pyrrolidin-1-yl)-benzylamide]: the half-inhibitory concentration (IC50) is 9.05 µM.

The molecule `O=S1(=O)Nc2c(ccc3cccnc23)-c2ccccc21` [5H-quinolino[8,7-c][1,2]benzothiazine 6,6-dioxide] registered an IC50 of 5.46 µM.

In turn, `C[C@@]1(CO)[C@H](O)CC[C@@]2(C)[C@H]1CC[C@H]1C[C@@H]3C[C@@]12CC[C@]3(O)CO` [6,13-di(hydroxymethyl)-2,6-dimethyl-(1S,2S,5R,6R,7R,10S,12R,13R)-tetracyclo[10.3.1.01,10.02,7]hexadecane-5,13-diol (Aphidicolin)] returned an IC50 of 0.55 µM.

As for `COC(=O)C1C(=CN2CCCc3ccccc32)NC(=O)NC1c1ccc(F)cc1` (stereo not given) [6-(3,4-dihydro-2H-quinolin-1-ylmethyl)-4-(4-fluorophenyl)-2-keto-3,4-dihydro-1H-pyrimidine-5-carboxylic acid methyl ester], inhibition was half-maximal at 5.34 µM (IC50).

Regarding `Cc1cc(C)n(-c2nc(NC(C)C)nc(NC(C)C)n2)n1` [6-(3,5-Dimethyl-pyrazol-1-yl)-N,N'-diisopropyl-[1,3,5]triazine-2,4-diamine], half-maximal inhibition (IC50) required 8.33 µM.

`C[S+]([O-])c1nc(-c2ccc(Br)cc2)cc(-c2ccccc2)c1C#N` (stereo not given) [6-(4-bromophenyl)-2-(methylsulfinyl)-4-phenylnicotinonitrile] had an IC50 of 5.24 µM.

In turn, `CCOc1ccc(C2=Nn3c(nnc3-c3ccccc3OC)SC2)cc1` [6-(4-ethoxyphenyl)-3-(2-methoxyphenyl)-7H-[1,2,4]triazolo[3,4-b][1,3,4]thiadiazine] had an IC50 greater than 0.407 µM.

As for `CCc1ccc(-c2cn3nc(C)c(C)nc3n2)cc1` [6-(4-ethylphenyl)-2,3-dimethyl-imidazo[1,2-b][1,2,4]triazine], half-maximal inhibition (IC50) was put at 3.21 µM.

Molecule `Cc1ccc(Nc2cc(C)nn2-c2nc(C)cc(O)n2)cc1` [6-methyl-2-[3-methyl-5-(4-methylanilino)pyrazol-1-yl]-1H-pyrimidin-4-one] had an IC50 of 4.32 µM.

With `Cc1ccc2nc(-c3ccccc3)cn2c1` [6-methyl-2-phenyl-imidazo[1,2-a]pyridine;hydrobromide], inhibition was half-maximal at 1.96 µM (IC50).

In turn, `COc1ccc(Cl)c(Cn2c(NCc3ccco3)nc3c2c(=O)n(C)c(=O)n3C)c1` [7-(2-chloro-5-methoxy-benzyl)-8-(2-furfurylamino)-1,3-dimethyl-xanthine] came in with an IC50 greater than 99 µM.

`CCNc1nc2c(c(=O)n(C)c(=O)n2C)n1Cc1ccc(Cl)cc1` [7-(4-chlorobenzyl)-8-(ethylamino)-1,3-dimethyl-xanthine] came in with an IC50 greater than 3.67 µM.

Still in this experiment, the particulars now being: inactive by the depositor's call.
`CCCCOc1ncnc2c1[nH]c1ccc(F)cc12` [4-butoxy-8-fluoranyl-5H-pyrimido[5,4-b]indole] registered an IC50 of 11.4 µM.

As to `CCCCOc1ccc(S(=O)(=O)Nc2cccnc2)cc1` [4-butoxy-N-(3-pyridinyl)benzenesulfonamide], the IC50 stood at 25 µM.

Take `COc1ccc(-c2cc(C(=O)O)c(C)o2)cc1OC` [5-(3,4-dimethoxyphenyl)-2-methyl-3-furancarboxylic acid]: the IC50 stood at 10.8 µM.

With `Oc1c(CN2CCCCC2)cc(COCc2ccccc2)c2cccnc12` [5-(benzoxymethyl)-7-(piperidinomethyl)quinolin-8-ol], the IC50 came out at 27.1 µM.

Consider `FC(F)(F)c1ccc(N2CCN(c3cc(-c4ccccc4)nc4ncnn34)CC2)nc1` [5-Phenyl-7-[4-(5-trifluoromethyl-pyridin-2-yl)-piperazin-1-yl]-[1,2,4]triazolo[1,5-a]pyrimidine], for which the IC50 was 21.2 µM.

The molecule `CCOC(=O)c1oc2ccc(S(=O)(=O)Nc3ccc4c(c3)n(C)c(=O)n4C)cc2c1C` [5-[(1,3-dimethyl-2-oxo-5-benzimidazolyl)sulfamoyl]-3-methyl-2-benzofurancarboxylic acid ethyl ester] showed an IC50 of 25.5 µM.

On to `CN1Cc2cc(C(=O)c3cc(Cl)cc(CSc4ncccn4)c3O)cnc2NC1=O` [6-[5-chloranyl-2-oxidanyl-3-(pyrimidin-2-ylsulfanylmethyl)phenyl]carbonyl-3-methyl-1,4-dihydropyrido[2,3-d]pyrimidin-2-one], for which the IC50 is 12.6 µM.

`CC(C)Cn1c(N)c(C(=O)CSc2ccc3c(c2)OCCO3)c(=O)n(C)c1=O` [6-amino-5-[2-(2,3-dihydro-1,4-benzodioxin-6-ylsulfanyl)acetyl]-3-methyl-1-(2-methylpropyl)pyrimidine-2,4-dione] returned an IC50 of 13.4 µM.

As for `Cn1c(-c2ccccc2)cc2c3no[n+]([O-])c3ccc21` [6-methyl-3-oxidanidyl-7-phenyl-pyrrolo[2,3-g][2,1,3]benzoxadiazol-3-ium], the midpoint of inhibition, the IC50, lay at 15 µM.

For `c1csc(CCNc2ncnc3sc4c(c23)CCC4)c1` [7,8-dihydro-6H-cyclopenta[4,5]thieno[1,2-c]pyrimidin-1-yl-[2-(2-thienyl)ethyl]amine], half-maximal inhibition (IC50) required 11.1 µM.

Turning to `Cn1c(=O)c2c(nc(NCc3ccco3)n2C/C=C/c2ccccc2)n(C)c1=O` [7-[(E)-cinnamyl]-8-(2-furfurylamino)-1,3-dimethyl-xanthine], the IC50 was 16.9 µM.

The values are drawn from BindingDB's records for doi:10.7270/Q2319T8T (The Scripps Research Institute Molecular Screening Center, 2007).
